# Source: patent EP3423441B1, “IODINATED ANALOGS OF CHOLINE, METHODS OF PREPARATION THEREOF, AND USE THEREOF AS MEDICAMENTS” (Univerzita Palackého v Olomouci, priority 2016, dated 2017)
# Read-outs that look alike come from different tables or passages of the source.
# Experiments:
# choline transporters [1] = experiment: In vitro determination of IC50: inhibition of [^3H]choline chloride accumulation in PC-3 cells; assay type: cell-based; details: cell line PC-3 (human prostate carcinoma); [^3H]choline chloride 0.81 × 10^-6 M; 60 min at 37 °C
# Procedure: IC50 value corresponds to a concentration of the given analog of choline which reduces the accumulation of choline chloride, the natural ligand of choline transporterss, to 50 % of the maximum value. For the assay, the tritium labeled choline chloride, i.e. [^3H]choline chloride, was used. The assay was performed in vitro on the cell line PC-3 derived from a human prostate carcinoma, which is known to overexpress choline transporters. […] As the negative control, a cell line of human ovarian carcinoma SKOV3 prepared to the confluence of 90 % in 24-well plates was used.
# The cultivation medium was removed from the thus prepared cells in cultivation plates and the cells were rinsed with phosphate buffered saline (PBS). Subsequently, 0.3 mL of "incubation buffer" (25 mM Tris/HCl, 5.4 mM KCl, 1.8 mM CaCl2, 0.8 mM MgSO4, 5 mM glucose, 140 mM NaCl, pH adjusted to 7.4) was added to the cells. Then 0.1 mL of the solution of the tested substance (analog of choline) in the incubation buffer was added to the PC-3 cells in such concentrations, that after adding [^3H]choline chloride the resulting concentrations of the tested analog would be following: 0 M, 10^-8 M, 10^-7 M, 10^-6 M, 5 × 10^-6 M, 10^-5 M, 10^-4 M, 5 × 10^-4 M, 10^-3 M, 5×10^-3 M. Each concentration was tested in triplicate.
# Subsequently, all cells prepared in this manner (PC-3 and SKOV3) were incubated with the analogs of choline for 15 minutes at the temperature of 37 °C.
# Then 0.1 mL of the solution of the [^3H]choline chloride in the incubation buffer was added to all cell-containing wells, so that 0.1 mL of the solution had the activity of 15 kBq and that the final concentration of the [^3H]choline chloride in the medium with the cells was 0.81 × 10^-6 M. The cells were then incubated at 37 °C for a period of 60 min. After the incubation, all buffer solution was removed from the cells. The cells were rinsed with PBS, which was subsequently removed, and 0.2 mL of aqueous NaOH solution (0.1 M) was added to each well. The cells were incubated with sodium hydroxide for 30 min at 37 °C. The lysate was then homogenized with a pipette and 10 µL of the lysate were used for the determination of protein concentration by bicinchonic acid assay (BCA).
# The remaining lysate (180 µL) was quantitatively transferred into scintillation vials containing a previously prepared scintillation solution (2 mL of the solution in each vial). Each well was then additionally rinsed with 0.2 mL of pure water and this solution was added to the corresponding scintillation vials. Scintillation vials were closed and their content was stirred on a shaker.
# To another three scintillation vials containing scintillation solution (2 mL of the solution in each vial) the standard samples of [^3H]choline chloride were added (i.e. 10 µl of the [^3H]choline chloride solution together with 180 µl of aqueous NaOH solution (0.1 M) and 200 µl of water). The vials were closed and their content was stirred on the shaker.
# Subsequently, radioactivity of each scintillation vial was measured using a liquid scintillation counter (Tri-Carb 2910TR Liquid Scintillation Counter, PerkinElmer). The recorded counts per second (cps) were then used to calculate the accumulation of [^3H]choline chloride in the individual cell samples. […] These values were used to construct a sigmoid curve of dependence between the rate of [^3H]choline chloride accumulation and the competing ligand (analog of choline) concentration(inhibition curve, Figure 2). The IC50 values were calculated from these inhibition curves.
# [2] = Binding to plasmatic proteins; details: plasma
# in vitro = details: liver microsomes
# Microsomal stability = details: hepatic microsomes
# choline transporters [3] = details: published data, Müller S. A. et al. (2009); cited from earlier work
SMILES,IC50 (choline transporters [1]) [µM],fraction unbound [2],microsomal CLint (in vitro) [µL/min/mg],Microsomal stability t1l2 (Microsomal stability) [min],Plasma stability (120 min) (Stability in the plasma) [%],IC50 (choline transporters [3]) [µM]
"Cc1ccc(S(=O)(=O)[O-])cc1.OCC[N+]1(CCc2ccc(I)cc2)CCCC1 [Example 7, 1-(2-hydroxyethyl)-1-[2-(4-iodophenyl)ethyl]pyrrolidin-1-ium 4-methylbenzenesulfonate]",16,0.833,90.6,15.3,97.6,
"Cc1ccc(S(=O)(=O)[O-])cc1.OC1C[N+]2(CCc3ccc(I)cc3)CCC1CC2 (stereo not drawn) [Example 8, 3-hydroxy-1-[2-(4-iodophenyl)ethyl]quinuclidin-1-ium 4-methylbenzenesulfonate]",120,0.717,39.8,34.8,89.9,
"Cc1ccc(S(=O)(=O)[O-])cc1.OCC[N+]1(Cc2ccccc2I)CCCCC1 [Example 14, 1-(2-hydroxyethyl)-1-(2-iodobenzyl)piperidin-1-ium 4-methylbenzenesulfonate]",190,0.831,22.6,61.3,80.7,
"CC[N+](CC)(CCO)Cc1ccccc1I.Cc1ccc(S(=O)(=O)[O-])cc1 [Example 15, Diethyl-(2-hydroxyethyl)-(2-iodobenzyl)ammonium 4-methylbenzenesulfonate]",8.4,0.814,73.6,18.8,84.9,
"C[N+]1(Cc2ccccc2I)CCCC(O)C1.Cc1ccc(S(=O)(=O)[O-])cc1 (stereo not drawn) [Example 16, 3-hydroxy-1-(2-iodobenzyl)-1-methylpiperidin-1-ium 4-methylbenzenesulfonate]",240,0.956,11.6,119.5,79.0,
"Cc1ccc(S(=O)(=O)[O-])cc1.OCCN1CC[N+](CCO)(Cc2ccccc2I)CC1 [Example 17, 1,4-bis(2-hydroxyethyl)-1-(2-iodobenzyl)piperazin-1-ium 4-methylbenzenesulfonate]",740,0.943,0.8,1732.5,58.4,
"Cc1ccc(S(=O)(=O)[O-])cc1.OC1C[N+]2(Cc3ccccc3I)CCC1CC2 (stereo not drawn) [Example 18, 3-hydroxy-1-(2-iodobenzyl)quinuclidin-1-ium 4-methylbenzenesulfonate]",180,0.903,63,22.0,73.4,
"C[N+](C)(CCO)Cc1ccccc1I.Cc1ccc(S(=O)(=O)[O-])cc1 [Example 19, (2-hydroxyethyl)-(2-iodobenzyl)-dimethylammonium 4-methylbenzenesulfonate]",160,0.661,166,8.3,91.3,
"C[N+]1(C)CCOC(O)(c2ccc(-c3ccc(C4(O)C[N+](C)(C)CCO4)cc3)cc2)C1 (stereo not drawn) [Hemicholinium-3, reference compound]",29,,,,,17
